Laboratory results as given in the NIST ThermoML archive (doi:10.1021/je060107n).
Numbers after ± are expanded uncertainties.

Assay: mn = molality of the nth substance listed, in mol/kg
Conditions: 101 kPa, Liquid; for mass density: Pycnometric method; for viscosity / speed of sound: 308.15 K; for viscosity: Capillary tube (Ostwald / Ubbelohde) method; for speed of sound: Linear variable-path acoustic interferometer

CC(=O)[O-].CC(=O)[O-].[Mg+2] [magnesium acetate] + O
Conditions	mass density [kg/m3]
305.5 K, m1 = 1.866	1115.1 ± 0.8
305.65 K, m1 = 0.646	1041.8 ± 0.7
305.85 K, m1 = 1.354	1086.1 ± 0.7
305.85 K, m1 = 5.732	1263.4 ± 0.9
305.95 K, m1 = 0.0831	1001 ± 0.6
305.95 K, m1 = 0.8751	1056.2 ± 0.7
306.3 K, m1 = 0.4247	1026.1 ± 0.7
306.4 K, m1 = 3.043	1171.3 ± 0.8
306.4 K, m1 = 3.437	1191.7 ± 0.8
306.55 K, m1 = 1.608	1101.3 ± 0.7
306.65 K, m1 = 5.165	1247 ± 0.9
306.75 K, m1 = 3.819	1203.4 ± 0.8
306.9 K, m1 = 0.1671	1007 ± 0.6
307.25 K, m1 = 2.134	1128.6 ± 0.8
307.5 K, m1 = 2.622	1152.1 ± 0.7
307.6 K, m1 = 4.547	1227.3 ± 0.9
307.65 K, m1 = 0.0414	997.17 ± 0.65
307.75 K, m1 = 1.327	1084 ± 0.7
308.05 K, m1 = 1.866	1114 ± 0.7
308.1 K, m1 = 1.106	1071.4 ± 0.7
308.45 K, m1 = 6.187	1274.5 ± 0.9
308.65 K, m1 = 0.646	1040.7 ± 0.7
308.65 K, m1 = 1.354	1085 ± 0.7
308.7 K, m1 = 3.437	1190.5 ± 0.9
308.75 K, m1 = 0.8751	1055.2 ± 0.7
308.75 K, m1 = 3.043	1170.1 ± 0.8
308.85 K, m1 = 5.165	1245.6 ± 0.9
308.9 K, m1 = 0.0831	1000 ± 0.6
308.95 K, m1 = 3.819	1202.2 ± 0.8
309.1 K, m1 = 2.411	1142.9 ± 0.8
309.25 K, m1 = 0.4247	1025.2 ± 0.7
309.6 K, m1 = 1.608	1100.1 ± 0.7
309.7 K, m1 = 0.1671	1006 ± 0.7
309.7 K, m1 = 4.547	1225.9 ± 0.9
309.7 K, m1 = 5.732	1260.8 ± 0.9
309.8 K, m1 = 2.134	1127.4 ± 0.7
309.95 K, m1 = 2.622	1151 ± 0.7

Conditions	speed of sound [m/s]	viscosity [mPa·s]
m1 = 0.0414	1523.3 ± 1.9	0.7529 ± 0.01
m1 = 0.0831	1530.3 ± 1.9	0.7775 ± 0.01
m1 = 0.1671	1541.4 ± 1.9	0.8306 ± 0.011
m1 = 0.4247	1575.1 ± 1.9	1.021 ± 0.014
m1 = 0.646	1601.9 ± 1.9	1.231 ± 0.016
m1 = 0.8751	1631.2 ± 1.9	1.45 ± 0.019
m1 = 1.106	1655.9 ± 1.9	1.774 ± 0.024
m1 = 1.354	1677.9 ± 2	2.139 ± 0.029
m1 = 1.608	1705 ± 2	2.139 ± 0.029
m1 = 1.866	1728.9 ± 2	3.181 ± 0.043
m1 = 2.134	1754.2 ± 2	3.943 ± 0.054
m1 = 2.411	1782.5 ± 2	5.121 ± 0.071
m1 = 2.622	1791.3 ± 2	5.819 ± 0.081
m1 = 3.043	1819.5 ± 2.1	8.11 ± 0.12
m1 = 3.437	1847.8 ± 2.1	12.3 ± 0.18
m1 = 3.819	1862.6 ± 2.1	–
m1 = 4.001	–	19.17 ± 0.29
m1 = 4.547	1888.8 ± 2.1	–
m1 = 4.563	–	31.43 ± 0.5
m1 = 4.929	–	39.25 ± 0.67
m1 = 5.165	1908 ± 2.1	–
m1 = 5.41	–	72.56 ± 0.96
m1 = 5.732	1914.4 ± 2.1	96.97 ± 2
m1 = 6.187	–	175.6 ± 4.6
